IC50 data for 25 compounds are collected here from patent publication US10308615B2, “Heterocyclic compounds as inhibitors of Vanin-1 enzyme” (Pfizer Inc., priority 2015, dated 2019).

Format in all cases: biochemical
The target of assay [1] is T1, human vanin-1 (Homo sapiens (Human), UniProt O95497). The assay can be described thus: Human Vanin-1 Enzyme Assay 2. To be noted: 1 nM human vanin-1, 10 uM substrate, 45 min. On the procedure:
Human Vanin-1 Enzyme Assay 2.
The in vitro assay measures enzymatic cleavage of the fluorescently-labeled vanin substrate, pantetheine 7-amino-4-trifluoromethylcoumarin, by human vanin-1.
The vanin-1 protein was prepared in-house from a construct expressing the extracellular domain of human vanin-1 (GenBank ID NM_004666) preceded N-terminally by the honey bee melittin signal peptide, a GSG linker sequence, a His6X tag and a FLAG tag. The secreted, soluble enzyme was purified from the conditioned medium from a CHO cell line stably expressing the resulting protein. Enzyme purification was performed through sequential Ni NTA and size-exclusion chromatography steps.
On the day of the assay, dose response plates were prepared by diluting the inhibitors in DMSO at compound concentration 100-fold the final in-assay concentration. Concentration series were prepared by serially diluting in DMSO in a half-log series for a total of 11 data points. Intermediate compound plates containing compound in 10% DMSO were then created by diluting the compounds 10-fold in assay buffer consisting of 50 mM Tris-HCl pH=8.0, 50 mM KCl, 0.005% Brij-35 and 1.5 mM cysteamine. To begin the assay 3 μL were transferred from the intermediate compound plate to the assay plate.
A working solution of human vanin-1 was prepared by diluting the enzyme stock to 1.25 nM in assay buffer. Next, 24 μL of the vanin-1 working solution were transferred to the assay plate. The enzyme reaction was then initiated by the addition of 3 μL of 100 μM pantetheine 7-amino-4-trifluoromethylcoumarin prepared in assay buffer. The final concentrations in the assay were 1 nM human vanin-1 and 10 uM substrate. The final concentration of DMSO was 1%. The assay plates were incubated for 45 minutes and before they were read on a Spectramax M5 using a 405 nm excitation wavelength and a 505 nm emission wavelength for detection.

For assay [2], the target named is T1, human vanin-1. The assay can be described thus: Human Vanin-1 Enzyme Assay 3. To be noted: 2 nM human vanin-1, 10 uM substrate, 15 min. The essentials: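 His/FLAG-tagged extracellular domain of human vanin-1 from CHO cells, used at 2 nM final, with 10 uM pantetheine-AFC substrate. Buffer: 50 mM Tris-HCl pH 8.0, 50 mM KCl, 0.005% Brij-35, 1.5 mM cysteamine, 1% DMSO. 15 min at room temperature; fluorescence read at 405/505 nm across an 11-point 2-fold dilution series.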

Assay [3] deals with T1, human vanin-1. Description: Human Vanin-1 Enzyme Assay 1. To be noted: 25 pM human vanin-1, 50 uM pantetheine 7-amino-4-trifluoromethylcoumarin, 30 min preincubation, 60 min. The essentials:
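Purified His6/FLAG-tagged extracellular domain of human vanin-1, secreted from CHO cells, at 25 pM final in 50 mM Tris-HCl pH 8.0, 50 mM KCl, 0.005% Brij-35, 1.6 mM cysteamine, 0.5% DMSO. Inhibitor preincubated 30 min at room temperature; 50 uM pantetheine-AFC substrate, 60 min, fluorescence at 405/510 nm; 11-point four-fold dilution series.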

T1 sequence (O95497 22-491): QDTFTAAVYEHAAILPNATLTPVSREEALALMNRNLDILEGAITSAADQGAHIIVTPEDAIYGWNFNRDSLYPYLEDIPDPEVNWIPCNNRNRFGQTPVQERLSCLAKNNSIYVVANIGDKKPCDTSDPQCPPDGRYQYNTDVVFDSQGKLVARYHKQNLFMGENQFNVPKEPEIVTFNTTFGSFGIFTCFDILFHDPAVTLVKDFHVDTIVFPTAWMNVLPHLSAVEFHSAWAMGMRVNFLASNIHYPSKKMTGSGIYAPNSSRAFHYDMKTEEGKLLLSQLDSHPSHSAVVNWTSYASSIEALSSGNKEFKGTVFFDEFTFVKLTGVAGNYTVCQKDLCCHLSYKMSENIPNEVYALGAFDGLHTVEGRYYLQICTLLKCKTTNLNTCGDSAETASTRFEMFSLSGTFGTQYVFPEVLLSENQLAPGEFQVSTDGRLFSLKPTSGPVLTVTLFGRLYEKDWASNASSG

For `CC(C)(Nc1ncc(C(=O)c2cccc(C#N)c2)cn1)c1ccccc1` [Example 3, 3-({2-[(2-phenylpropan-2-yl)amino]pyrimidin-5-yl}carbonyl)benzonitrile], the 50% inhibitory concentration (IC50) (as a rule, the midpoint of a concentration-inhibition curve) at human vanin-1 [1] was 15.3 nM; on human vanin-1 [2], 75 nM; at human vanin-1 [3], 13.6 nM.

Turning to `O=C(c1cnc(NCc2cnccn2)nc1)c1cccc(C(F)(F)F)c1` [Example 11, {2-[(pyrazin-2-ylmethyl)amino]pyrimidin-5-yl}[3-(trifluoromethyl)phenyl]methanone], the IC50 against human vanin-1 [1] is 9 nM; against human vanin-1 [2], less than 6.2 nM; against human vanin-1 [3], 6.4 nM.

As to `O=C(c1cnc(NCc2cccnc2)nc1)c1cccc(C(F)(F)F)c1` [Example 12, {2-[(pyridin-3-ylmethyl)amino]pyrimidin-5-yl}[3-(trifluoromethyl)phenyl]methanone], the results for the IC50 against human vanin-1 [1], against human vanin-1 [2] and against human vanin-1 [3] were 2.9 nM, 0.5 nM and 1.9 nM, respectively.

`CS(=O)(=O)c1cccc(C(=O)c2cnc(NCc3cccnc3)nc2)c1` [Example 13, [3-(methylsulfonyl)phenyl]{2-[(pyridin-3-ylmethyl)amino]pyrimidin-5-yl}methanone]: the figures for the half-maximal inhibitory concentration (IC50) on human vanin-1 [1] and against human vanin-1 [2] were 2 nM and greater than 26.1 nM, respectively.

Turning to `Cc1cccc(C(=O)c2cnc(NCc3cccnc3)nc2)c1` [Example 14, (3-methylphenyl){2-[(pyridin-3-ylmethyl)amino]pyrimidin-5-yl}methanone], the IC50 at human vanin-1 [1] was 31.5 nM; on human vanin-1 [2] it was less than 13 nM; on human vanin-1 [3] it was 47.8 nM.

Consider `O=C(c1cnc(NCc2cccnc2)nc1)c1ccccc1F` [Example 15, (2-fluorophenyl){2-[(pyridin-3-ylmethyl)amino]pyrimidin-5-yl}methanone], for which the concentration for half-maximal inhibition (IC50) against human vanin-1 [1] amounted to 92.4 nM; on human vanin-1 [2], 170 nM; at human vanin-1 [3] it was 329 nM.

As for `Cc1cccc(C(=O)c2cnc(NCc3ccc(C(N)=O)cc3)nc2)c1` [Example 23, 4-({[5-(3-methylbenzoyl)pyrimidin-2-yl]amino}methyl) benzamide], the 50% inhibitory concentration (IC50) stood at 98.7 nM at human vanin-1 [1], 160 nM against human vanin-1 [2] and 178 nM against human vanin-1 [3].

Take `O=C(c1cnc(NCc2ccccc2)nc1)c1cccc(Cl)c1` [Example 24, [2-(benzylamino)pyrimidin-5-yl](3-chlorophenyl) methanone]: the IC50 at human vanin-1 [1] turned out to be 317 nM; against human vanin-1 [2], 274 nM; against human vanin-1 [3] it was 1240 nM.

With `CC(C)(Nc1ncc(C(=O)c2cccc(Cl)c2)cn1)c1ccccc1` [Example 25, (3-chlorophenyl){2-[(2-phenylpropan-2-yl)amino]pyrimidin-5-yl}methanone], the IC50 came out at 64.5 nM on human vanin-1 [1], 11.5 nM against human vanin-1 [2] and 74.1 nM against human vanin-1 [3].

`N#Cc1cccc(C(=O)c2cnc(NCc3ccccc3)nc2)c1` [Example 27, 3-{[2-(benzylamino)pyrimidin-5-yl]carbonyl} benzonitrile]: the IC50 at human vanin-1 [1] stood at 40.4 nM; against human vanin-1 [2], 52.2 nM; against human vanin-1 [3], 79.7 nM.

Take `N#Cc1cccc(C(=O)c2cnc(NCc3ccc(Cl)cc3)nc2)c1` [Example 28, 3-({2-[(4-chlorobenzyl)amino]pyrimidin-5-yl}carbonyl) benzonitrile]: the concentration for half-maximal inhibition (IC50) came out at 21.8 nM on human vanin-1 [1], 8.4 nM on human vanin-1 [2] and 38.2 nM against human vanin-1 [3].

Turning to `COc1ccc(CNc2ncc(C(=O)c3cccc(C#N)c3)cn2)cc1` [Example 29, 3-({2-[(4-methoxybenzyl)amino]pyrimidin-5-yl}carbonyl) benzonitrile], the results for the IC50 at human vanin-1 [1], against human vanin-1 [2] and at human vanin-1 [3] were 72.7 nM, 107 nM and 122 nM, respectively.

With `N#Cc1cccc(C(=O)c2cnc(NCc3ccc(F)cc3F)nc2)c1` [Example 30, 3-({2-[(2,4-difluorobenzyl)amino]pyrimidin-5-yl}carbonyl) benzonitrile], the 50% inhibitory concentration (IC50) at human vanin-1 [1] was found to be 35.5 nM; at human vanin-1 [2], 16.8 nM; against human vanin-1 [3], 36.4 nM.

As for `N#Cc1cccc(C(=O)c2cnc(NCc3ccc(F)cc3)nc2)c1` [Example 31, 3-({2-[(4-fluorobenzyl)amino]pyrimidin-5-yl}carbonyl) benzonitrile], the 50% inhibitory concentration (IC50) against human vanin-1 [1] amounted to 57.2 nM; against human vanin-1 [2], 14 nM; against human vanin-1 [3] it was 102 nM.

Regarding `N#Cc1cccc(C(=O)c2cnc(NCc3ccccc3Cl)nc2)c1` [Example 32, 3-({2-[(2-chlorobenzyl)amino]pyrimidin-5-yl}carbonyl) benzonitrile], the IC50 on human vanin-1 [1] is 71.3 nM; on human vanin-1 [2], 14.3 nM; against human vanin-1 [3], 95.3 nM.

`COc1cccc(C(=O)c2cnc(NCc3ccc(F)cc3)nc2)c1` [Example 37, {2-[(4-fluorobenzyl)amino]pyrimidin-5-yl}(3-methoxyphenyl) methanone]: the IC50 is 226 nM at human vanin-1 [1] and 77.2 nM against human vanin-1 [2].

In the case of `O=C(c1cnc(NCc2cccnn2)nc1)c1cccc(C(F)(F)F)c1` [Example 67, {2-[(pyridazin-3-ylmethyl)amino]pyrimidin-5-yl}[3-(trifluoromethyl)phenyl]methanone], the IC50 at human vanin-1 [1] amounted to 47.9 nM; on human vanin-1 [2], 81.6 nM.

In the case of `Cn1cc(C(=O)c2cnc(NCc3cccnc3)nc2)cn1` [Example 103, (1-methyl-1H-pyrazol-4-yl){2-[(pyridin-3-ylmethyl)amino]pyrimidin-5-yl}methanone], the half-maximal inhibitory concentration (IC50) worked out at 563 nM against human vanin-1 [1] and 381 nM against human vanin-1 [2].

Regarding `O=C(c1cnc(NCc2cncnc2)nc1)c1cccc(C(F)(F)F)c1` [Example 119, {2-[(pyrimidin-5-ylmethyl)amino]pyrimidin-5-yl}[3-(trifluoromethyl)phenyl]methanone], the half-maximal inhibitory concentration (IC50) came out at 11.3 nM against human vanin-1 [1] and 6.1 nM on human vanin-1 [2].

For `CS(=O)(=O)c1cccc(C(=O)c2cnc(NCc3ccc(C(N)=O)cc3)nc2)c1` [Example 125, 4-[({5-[3-(methylsulfonyl)benzoyl]pyrimidin-2-yl}amino)methyl] benzamide], the results for the 50% inhibitory concentration (IC50) against human vanin-1 [1] and at human vanin-1 [2] were 21.9 nM and greater than 1250 nM, respectively.

Turning to `COc1cccc(C(=O)c2cnc(NCc3ccc(N4CCN(C)CC4)cc3)nc2)c1` [Example 154, (3-methoxyphenyl) (2-{[4-(4-methylpiperazin-1-yl)benzyl]amino}pyrimidin-5-yl)methanone], the IC50 on human vanin-1 [1] turned out to be 6410 nM; on human vanin-1 [2], 3790 nM.

In the case of `Cn1ncc2cc(C(=O)c3cnc(NCc4cncnc4)nc3)ccc21` [Example 159, (1-methyl-1H-indazol-5-yl){2-[(pyrimidin-5-ylmethyl)amino]pyrimidin-5-yl}methanone], the concentration for half-maximal inhibition (IC50) against human vanin-1 [1] turned out to be 3080 nM; against human vanin-1 [3] it was 2750 nM.

Consider `COc1ccc(C(=O)c2cnc(NC(C)c3ccc(C(N)=O)cc3)nc2)cc1` (stereo not shown) [Example 160, 4-(1-{[5-(4-methoxybenzoyl)pyrimidin-2-yl]amino}ethyl) benzamide], for which the IC50 against human vanin-1 [1] is 7150 nM; at human vanin-1 [3], 3440 nM.

As to `N#Cc1cccc(C(=O)c2cnc(NCC3CCOCC3)nc2)c1` [Example 163, 3-({2-[(tetrahydro-2H-pyran-4-ylmethyl)amino]pyrimidin-5-yl}carbonyl) benzonitrile], the IC50 against human vanin-1 [1] came out at 2230 nM; against human vanin-1 [3] it was 2880 nM.

Regarding `CN1CCC(CNc2ncc(C(=O)c3cccc(C#N)c3)cn2)CC1` [Example 164, 3-[(2-{[(1-methylpiperidin-4-yl)methyl]amino}pyrimidin-5-yl)carbonyl] benzonitrile], the IC50 on human vanin-1 [1] worked out at 8570 nM; against human vanin-1 [3], 1810 nM.
